Laboratory results as given in patent US20240148709A1, “METHODS OF TREATING EYE PAIN AND EYE DISORDERS” (Aisa Pharma, Inc., priority 2022, published 2024).

Tested on: participants with SSc-RP
Assay: Scleroderma Health Assessment Questionnaire (SHAQ), Phase 2a study Part A
Format: in vivo, human
Settings: cilnidipine 10 mg and/or tadalafil 5 mg arms
Protocol: Part A—double-blind, placebo-controlled, parallel-group, dose selection, will assess the safety and efficacy of two doses of cilnidipine (10 mg and 20 mg), alone and in combination with tadalafil. A total of 36 participants will be randomized to one of six prespecified treatment arms. Refer to FIG. 1 for treatment arms in Part A of the study. Dosing last for 12 (±2) days in which participants will self-administer daily doses of assigned treatment in the morning. Each participant will take one capsule and one tablet to blind the active therapy being received.
The standard, validated, patient reported outcome measures tool for SSc patients, the SHAQ, will be collected at the time points specified in the study schedules (FIG. 2 and FIGS. 3A and 3B) to assess the participant's quality of life. The SHAQ includes a Raynaud's VAS that will also be reported separately.
Results: Patients in the study were administered the Scleroderma Health Assessment Questionnaire (SHAQ) at the time of study entry and during clinic visits following the treatment period. The study is a two-part, parallel arm design, prospective, double-blind, randomized study conducted in Australia (Flinders Medical Center). 27 patients were randomized into the first phase of the study, following which a DSMB meeting was held, which reviewed data on the primary study endpoint and key Raynaud's secondary endpoints. Data on the SHAQ was not available for the DSMB to review. The mITT population, in which any data was available post treatment was 24 patients was the analysis population for this first part of the study. The second part (i.e., part B) of the study will randomize 36 patients in a double blind, randomized, prospective, placebo controlled, crossover study. In the first part (i.e., Part A) of the study for which data is presented, patients were randomized into 6 groups, cilnidipine at two doses (10 and 20 mg) alone and in combination with tadalafil 5 mg, tadalafil 5 mg alone, and placebo. […] The DSMB recommended that the study proceed into its double blind prospective cross overpowered second phase and compare cilnidipine 20 mg alone to placebo.

CN1CC(=O)N2[C@H](c3ccc4c(c3)OCO4)c3[nH]c4ccccc4c3C[C@@H]2C1=O [Tadalafil, tadalafil]
SHAQ Finger Ulcers, Change from Baseline, Max: 1.00 | SHAQ Finger Ulcers, Change from Baseline, Mean (SD): 0.250 (0.5000) | SHAQ Finger Ulcers, Change from Baseline, Median: 0.000 | SHAQ Finger Ulcers, Change from Baseline, Min: 0.00 | SHAQ Finger Ulcers, Change from Baseline, Q1: 0.000 | SHAQ Finger Ulcers, Change from Baseline, Q3: 0.500 | SHAQ Finger Ulcers, In Clinic Visit (Day 12), Max: 9.20 | SHAQ Finger Ulcers, In Clinic Visit (Day 12), Mean (SD): 2.325 (4.5836) | SHAQ Finger Ulcers, In Clinic Visit (Day 12), Median: 0.050 | SHAQ Finger Ulcers, In Clinic Visit (Day 12), Min: 0.00 | SHAQ Finger Ulcers, In Clinic Visit (Day 12), Q1: 0.000 | SHAQ Finger Ulcers, In Clinic Visit (Day 12), Q3: 4.650 | SHAQ Finger Ulcers, Percent Change from Baseline, Max: 12.2% | SHAQ Finger Ulcers, Percent Change from Baseline, Mean (SD): 6.10 (8.623) % | SHAQ Finger Ulcers, Percent Change from Baseline, Median: 6.10% | SHAQ Finger Ulcers, Percent Change from Baseline, Min: 0.0% | SHAQ Finger Ulcers, Percent Change from Baseline, Q1: 0.00% | SHAQ Finger Ulcers, Percent Change from Baseline, Q3: 12.20% | SHAQ Overall Change in Severity, Change from Baseline, Max: 2.40 | SHAQ Overall Change in Severity, Change from Baseline, Median: 0.700 | SHAQ Overall Change in Severity, Change from Baseline, Min: −1.30 | SHAQ Overall Change in Severity, Change from Baseline, Q1: −0.600 | SHAQ Overall Change in Severity, Change from Baseline, Q3: 1.850 | SHAQ Overall Change in Severity, In Clinic Visit (Day 12), Max: 9.10 | SHAQ Overall Change in Severity, In Clinic Visit (Day 12), Mean (SD): 5.600 (4.2528) | SHAQ Overall Change in Severity, In Clinic Visit (Day 12), Median: 6.550 | SHAQ Overall Change in Severity, In Clinic Visit (Day 12), Min: 0.20 | SHAQ Overall Change in Severity, In Clinic Visit (Day 12), Q1: 2.200 | SHAQ Overall Change in Severity, In Clinic Visit (Day 12), Q3: 9.000 | SHAQ Overall Change in Severity, Percent Change from Baseline, Max: 100.0% | SHAQ Overall Change in Severity, Percent Change from Baseline, Mean (SD): 32.49 (51.568) % | SHAQ Overall Change in Severity, Percent Change from Baseline, Median: 26.790% | SHAQ Overall Change in Severity, Percent Change from Baseline, Min: −23.6% | SHAQ Overall Change in Severity, Percent Change from Baseline, Q1: −3.48% | SHAQ Overall Change in Severity, Percent Change from Baseline, Q3: 68.46% | SHAQ Standard disability index, Change from Baseline, Max: 0.00 | SHAQ Standard disability index, Change from Baseline, Mean (SD): −0.063 (0.0722) | SHAQ Standard disability index, Change from Baseline, Median: −0.063 | SHAQ Standard disability index, Change from Baseline, Min: −0.13 | SHAQ Standard disability index, Change from Baseline, Q1: −0.125 | SHAQ Standard disability index, Change from Baseline, Q3: 0.000 | SHAQ Standard disability index, In Clinic Visit (Day 12), Max: 1.00 | SHAQ Standard disability index, In Clinic Visit (Day 12), Mean (SD): 0.531 (0.4130) | SHAQ Standard disability index, In Clinic Visit (Day 12), Median: 0.563 | SHAQ Standard disability index, In Clinic Visit (Day 12), Min: 0.00 | SHAQ Standard disability index, In Clinic Visit (Day 12), Q1: 0.250 | SHAQ Standard disability index, In Clinic Visit (Day 12), Q3: 0.813 | SHAQ Standard disability index, Percent Change from Baseline, Max: 0.0% | SHAQ Standard disability index, Percent Change from Baseline, Mean (SD): −9.26 (8.486) % | SHAQ Standard disability index, Percent Change from Baseline, Median: −11.11% | SHAQ Standard disability index, Percent Change from Baseline, Min: −16.7% | SHAQ Standard disability index, Percent Change from Baseline, Q1: −16.67% | SHAQ Standard disability index, Percent Change from Baseline, Q3: 0.00% | SHAQ Visual Analog Scale-Breathing Problems, Change from Baseline, Max: 2.80 | SHAQ Visual Analog Scale-Breathing Problems, Change from Baseline, Mean (SD): 0.500 (2.5599) | SHAQ Visual Analog Scale-Breathing Problems, Change from Baseline, Median: 1.050 | SHAQ Visual Analog Scale-Breathing Problems, Change from Baseline, Min: −2.90 | SHAQ Visual Analog Scale-Breathing Problems, Change from Baseline, Q1: −1.450 | SHAQ Visual Analog Scale-Breathing Problems, Change from Baseline, Q3: 2.450 | SHAQ Visual Analog Scale-Breathing Problems, In Clinic Visit (Day 12), Max: 9.20 | SHAQ Visual Analog Scale-Breathing Problems, In Clinic Visit (Day 12), Mean (SD): 4.300 (4.8840) | SHAQ Visual Analog Scale-Breathing Problems, In Clinic Visit (Day 12), Median: 4.000 | SHAQ Visual Analog Scale-Breathing Problems, In Clinic Visit (Day 12), Min: 0.00 | SHAQ Visual Analog Scale-Breathing Problems, In Clinic Visit (Day 12), Q1: 0.100 | SHAQ Visual Analog Scale-Breathing Problems, In Clinic Visit (Day 12), Q3: 8.500 | SHAQ Visual Analog Scale-Breathing Problems, Percent Change from Baseline, Max: 56.0% | SHAQ Visual Analog Scale-Breathing Problems, Percent Change from Baseline, Mean (SD): −2.66 (79.815) % | SHAQ Visual Analog Scale-Breathing Problems, Percent Change from Baseline, Median: 29.58% | SHAQ Visual Analog Scale-Breathing Problems, Percent Change from Baseline, Min: −93.5% | SHAQ Visual Analog Scale-Breathing Problems, Percent Change from Baseline, Q1: −93.55% | SHAQ Visual Analog Scale-Breathing Problems, Percent Change from Baseline, Q3: 56.00% | SHAQ Visual Analog Scale-Intestinal Problems, Change from Baseline, Max: 1.80 | SHAQ Visual Analog Scale-Intestinal Problems, Change from Baseline, Mean (SD): −0.125 (1.6800) | SHAQ Visual Analog Scale-Intestinal Problems, Change from Baseline, Median: 0.000 | SHAQ Visual Analog Scale-Intestinal Problems, Change from Baseline, Min: −2.30 | SHAQ Visual Analog Scale-Intestinal Problems, Change from Baseline, Q1: −1.150 | SHAQ Visual Analog Scale-Intestinal Problems, Change from Baseline, Q3: 0.900 | SHAQ Visual Analog Scale-Intestinal Problems, In Clinic Visit (Day 12), Max: 9.20 | SHAQ Visual Analog Scale-Intestinal Problems, In Clinic Visit (Day 12), Mean (SD): 3.025 (4.3162) | SHAQ Visual Analog Scale-Intestinal Problems, In Clinic Visit (Day 12), Median: 1.450 | SHAQ Visual Analog Scale-Intestinal Problems, In Clinic Visit (Day 12), Min: 0.00 | SHAQ Visual Analog Scale-Intestinal Problems, In Clinic Visit (Day 12), Q1: 0.050 | SHAQ Visual Analog Scale-Intestinal Problems, In Clinic Visit (Day 12), Q3: 6.000 | SHAQ Visual Analog Scale-Intestinal Problems, Percent Change from Baseline, Max: 24.3% | SHAQ Visual Analog Scale-Intestinal Problems, Percent Change from Baseline, Mean (SD): −6.92 (35.225) % | SHAQ Visual Analog Scale-Intestinal Problems, Percent Change from Baseline, Median: 0.00% | SHAQ Visual Analog Scale-Intestinal Problems, Percent Change from Baseline, Min: −45.1% | SHAQ Visual Analog Scale-Intestinal Problems, Percent Change from Baseline, Q1: −45.10% | SHAQ Visual Analog Scale-Intestinal Problems, Percent Change from Baseline, Q3: 24.32% | SHAQ Visual Analog Scale-Pain, Change from Baseline, Max: 1.50 | SHAQ Visual Analog Scale-Pain, Change from Baseline, Mean (SD): 1.000 (0.4359) | SHAQ Visual Analog Scale-Pain, Change from Baseline, Median: 0.800 | SHAQ Visual Analog Scale-Pain, Change from Baseline, Min: 0.70 | SHAQ Visual Analog Scale-Pain, Change from Baseline, Q1: 0.700 | SHAQ Visual Analog Scale-Pain, Change from Baseline, Q3: 1.500 | SHAQ Visual Analog Scale-Pain, In Clinic Visit (Day 12), Max: 9.20 | SHAQ Visual Analog Scale-Pain, In Clinic Visit (Day 12), Mean (SD): 5.300 (4.1577) | SHAQ Visual Analog Scale-Pain, In Clinic Visit (Day 12), Median: 5.850 | SHAQ Visual Analog Scale-Pain, In Clinic Visit (Day 12), Min: 0.30 | SHAQ Visual Analog Scale-Pain, In Clinic Visit (Day 12), Q1: 1.900 | SHAQ Visual Analog Scale-Pain, In Clinic Visit (Day 12), Q3: 8.700 | SHAQ Visual Analog Scale-Pain, Percent Change from Baseline, Max: 75.0% | SHAQ Visual Analog Scale-Pain, Percent Change from Baseline, Mean (SD): 31.35 (37.825) % | SHAQ Visual Analog Scale-Pain, Percent Change from Baseline, Median: 10.81% | SHAQ Visual Analog Scale-Pain, Percent Change from Baseline, Min: 8.2% | SHAQ Visual Analog Scale-Pain, Percent Change from Baseline, Q1: 8.24% | SHAQ Visual Analog Scale-Pain, Percent Change from Baseline, Q3: 75.00% | SHAQ Visual Analog Scale-Raynaud's, Change from Baseline, Max: −0.10 | SHAQ Visual Analog Scale-Raynaud's, Change from Baseline, Mean (SD): −0.825 (0.9674) | SHAQ Visual Analog Scale-Raynaud's, Change from Baseline, Median: −0.500 | SHAQ Visual Analog Scale-Raynaud's, Change from Baseline, Min: −2.20 | SHAQ Visual Analog Scale-Raynaud's, Change from Baseline, Q1: −1.500 | SHAQ Visual Analog Scale-Raynaud's, Change from Baseline, Q3: −0.150 | SHAQ Visual Analog Scale-Raynaud's, In Clinic Visit (Day 12), Max: 9.20 | SHAQ Visual Analog Scale-Raynaud's, In Clinic Visit (Day 12), Mean (SD): 4.950 (3.7749) | SHAQ Visual Analog Scale-Raynaud's, In Clinic Visit (Day 12), Median: 5.200 | SHAQ Visual Analog Scale-Raynaud's, In Clinic Visit (Day 12), Min: 0.20 | SHAQ Visual Analog Scale-Raynaud's, In Clinic Visit (Day 12), Q1: 2.200 | SHAQ Visual Analog Scale-Raynaud's, In Clinic Visit (Day 12), Q3: 7.700 | SHAQ Visual Analog Scale-Raynaud's, Percent Change from Baseline, Max: −3.1% | SHAQ Visual Analog Scale-Raynaud's, Percent Change from Baseline, Mean (SD): −19.71 (16.460) % | SHAQ Visual Analog Scale-Raynaud's, Percent Change from Baseline, Median: −20.67% | SHAQ Visual Analog Scale-Raynaud's, Percent Change from Baseline, Min: −34.4% | SHAQ Visual Analog Scale-Raynaud's, Percent Change from Baseline, Q1: −33.85% | SHAQ Visual Analog Scale-Raynaud's, Percent Change from Baseline, Q3: −5.56% | SHAQ alternative disability index, Change from Baseline, Max: 0.00 | SHAQ alternative disability index, Change from Baseline, Mean (SD): −0.094 (0.0625) | SHAQ alternative disability index, Change from Baseline, Median: −0.125 | SHAQ alternative disability index, Change from Baseline, Min: −0.13 | SHAQ alternative disability index, Change from Baseline, Q1: −0.125 | SHAQ alternative disability index, Change from Baseline, Q3: −0.063 | SHAQ alternative disability index, In Clinic Visit (Day 12), Max: 1.00 | SHAQ alternative disability index, In Clinic Visit (Day 12), Mean (SD): 0.375 (0.4787) | SHAQ alternative disability index, In Clinic Visit (Day 12), Median: 0.250 | SHAQ alternative disability index, In Clinic Visit (Day 12), Min: 0.00 | SHAQ alternative disability index, In Clinic Visit (Day 12), Q1: 0.000 | SHAQ alternative disability index, In Clinic Visit (Day 12), Q3: 0.750 | SHAQ alternative disability index, Percent Change from Baseline, Max: −11.1% | SHAQ alternative disability index, Percent Change from Baseline, Mean (SD): −43.70 (48.956) % | SHAQ alternative disability index, Percent Change from Baseline, Median: −20.00% | SHAQ alternative disability index, Percent Change from Baseline, Min: −100.0% | SHAQ alternative disability index, Percent Change from Baseline, Q1: −100.00% | SHAQ alternative disability index, Percent Change from Baseline, Q3: −11.11%
